Non-standard residues stand in square brackets, D forms with d. Residues, ends and D or L forms follow the SMILES beside them. *: point of attachment. 1Nal = N[C@@H](Cc1cccc2ccccc12)C(=O)O; Bn = c1ccc(C*)cc1

The target in the experiment is T1, NK2 receptor (Bos taurus, UniProt P05363).
T1 construct: The membrane fraction containing the receptor was prepared from the inner wall of the bovine third stomach; tissue Kyoto Chuo Chikusan Fukuseibutsu Oroshi Kyoukai (tissue); host or cells: inner wall of bovine third stomach, membrane fraction
T1 sequence (P05363 1-384): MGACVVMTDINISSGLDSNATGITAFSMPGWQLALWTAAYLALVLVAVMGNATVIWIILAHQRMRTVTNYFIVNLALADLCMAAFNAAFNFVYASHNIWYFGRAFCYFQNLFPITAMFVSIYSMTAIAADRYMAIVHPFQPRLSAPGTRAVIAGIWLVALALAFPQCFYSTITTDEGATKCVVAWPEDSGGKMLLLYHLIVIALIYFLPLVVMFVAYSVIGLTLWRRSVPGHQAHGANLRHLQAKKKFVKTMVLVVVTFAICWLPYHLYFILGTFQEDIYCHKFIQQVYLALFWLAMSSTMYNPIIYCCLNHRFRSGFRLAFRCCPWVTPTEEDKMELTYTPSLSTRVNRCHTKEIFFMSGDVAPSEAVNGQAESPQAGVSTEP
Nature of the experiment: Assay of affinity for receptor (3): binding inhibiting activity on NK2 receptor, 125I-neurokinin A, membrane fraction of bovine third stomach inner wall. As to conditions: 125I-NKA, 25°C, 3 hours. The method, then: Assay of Affinity for Receptor (3) ... Binding Inhibiting Activity on NK2 Receptor
The method of Paul L. M. Van Giersbergen et al. [Proc. Natl. Acad. Sci. U.S.A., 88, 1661 (1991) was modified for this assay. The membrane fraction containing the receptor was prepared from the inner wall of the bovine third stomach (purchased from Kyoto Chuo Chikusan Fukuseibutsu Oroshi Kyoukai).
The inner wall of the bovine third stomach stored at-80°C was cut to 1 cm X 1 cm or less, and disrupted in 3 liters/kg of 50 mM Tris-HCl buffer (pH 7.4) supplemented with 120 mM sodium chloride, 5 mM potassium chloride, 0.02% BSA and 5% sucrose, using a polytron homogenizer (Kinematika, Germany). Then, the disrupted product was centrifuged at 1,000 X g for 10 minutes. The supernatant was further centrifuged at 45,000 X g for 20 minutes. The precipitate was suspended in 200 ml of 50 mM Tris-HCl buffer (pH 7.4) supplemented with 300 mM potassium chloride, 10 mM ethylenediaminetetraacetic acid, 0.1 mM phenylmethylsulfonium fluoride and 0.02% BSA, and gently stirred under ice cooling for 60 minutes. The suspension was centrifuged at 45,000 X g for 20 minutes. The precipitate was washed with 200 ml of 50 mM Tris-HCl buffer (pH 7.4), and stored in the frozen state at -40°C as a receptor sample.
This sample was suspended in a reaction buffer solution [50 mM Tris-HCl buffer (pH 7.4), 0.02% bovine serum albumin and 4 mM manganese chloride] so as to give a protein concentration of 0.7 mg/ml, and 100 µl thereof was used for reaction. A test sample and ^125I-NKA (0.61 KBq, ^125I-neurokinin A, 81.4 TBq/mmol, Du Pont/NEN Research Products, U.S.A.) were also added, and reacted in 0.2 ml of the reaction buffer solution at 25°C for 3 hours. The reaction mixture was rapidly filtered through a glass filter (GF/B, Whatman, U.S.A.) using a cell harvester (Type 290PHD, Cambridge Technology Inc.) to terminate the reaction, and washed 3 times with 250 µl of 50 mM Tris-HCl buffer (pH 7.4) supplemented with 0.02% bovine serum albumin. The radioactivity left on the filter was measured with a gamma-ray counter. Results are shown in Table 1 as the binding inhibiting activity (IC50, unit: µM) on the NK2 receptor.
The compound `CC(C)C[C@@H]1NC(=O)[C@@H](CC(C)C)NC(=O)[C@H](CO)NC(=O)[C@H](Cc2c[nH]c3ccccc23)NC(=O)[C@@H](CC(=O)O)NC(=O)[C@@H](Cc2c[nH]c3ccccc23)NC1=O` [Example 37, Cyclo[-D-Asp-Trp-Ser-D-Leu-Leu-D-Trp-]] (cyclo(L[dW][dD]WS[dL])) returned a concentration for half-maximal inhibition (IC50) of 280 nM.

Regarding `CC(C)C[C@@H]1NC(=O)[C@@H](CC(C)C)NC(=O)[C@H](COCc2ccccc2)NC(=O)[C@H](Cc2c[nH]c3ccccc23)NC(=O)[C@@H](CC(=O)O)NC(=O)[C@@H](Cc2c[nH]c3ccccc23)NC1=O` [Example 38, Cyclo[-D-Asp-Trp-Ser(Bzl)-D-Leu-Leu-D-Trp-]] (cyclo(L[dW][dD]WS(Bn)[dL])), the IC50 was 70 nM.

Take `CC(C)C[C@@H]1NC(=O)[C@H](Cc2c[nH]c3ccccc23)NC(=O)[C@@H](CC(=O)O)NC(=O)[C@@H](Cc2c[nH]c3ccccc23)NC(=O)[C@H](CC(C)C)NC(=O)[C@@H](CC(C)C)NC1=O` [Example 35, Cyclo[-D-Asp-Trp-Leu-D-Leu-Leu-D-Trp-]] (cyclo(L[dL]L[dW][dD]W)): the IC50 was found to be 52 nM.

`CC(C)C[C@@H]1NC(=O)[C@@H](CC(C)C)NC(=O)[C@H](CC(=O)O)NC(=O)[C@H](Cc2c[nH]c3ccccc23)NC(=O)[C@@H](CC(=O)O)NC(=O)[C@@H](Cc2c[nH]c3ccccc23)NC1=O` [Example 8, cyclo[-D-Asp-Trp-Asp-D-Leu-Leu-D-Trp-]] (cyclo(D[dL]L[dW][dD]W)) came in with an IC50 of 6400 nM.

On to `CC(C)C[C@@H]1NC(=O)[C@@H](CC(C)C)NC(=O)[C@H](CCC(=O)O)NC(=O)[C@H](Cc2c[nH]c3ccccc23)NC(=O)[C@@H](CC(=O)O)NC(=O)[C@@H](Cc2c[nH]c3ccccc23)NC1=O` [Example 34, Cyclo[-D-Asp-Trp-Glu-D-Leu-Leu-D-Trp-]] (cyclo(E[dL]L[dW][dD]W)), for which the IC50 turned out to be 7400 nM. The IC50 values of the last two compounds are within 1.5-fold of each other.

Consider `CC(C)C[C@@H]1NC(=O)[C@@H](CC(C)C)NC(=O)[C@H](CC(=O)O)NC(=O)[C@H](Cc2cccc3ccccc23)NC(=O)[C@@H](CC(=O)O)NC(=O)[C@@H](Cc2c[nH]c3ccccc23)NC1=O` [Example 23, Cyclo[-D-Asp-Nal(1)-Asp-D-Leu-Leu-D-Trp-]] (cyclo([1Nal]D[dL]L[dW][dD])), for which the 50% inhibitory concentration (IC50) came out at 2100 nM.

`CC(C)C[C@@H]1NC(=O)[C@@H](CC(C)C)NC(=O)[C@@H]2CCCN2C(=O)[C@H](Cc2c[nH]c3ccccc23)NC(=O)[C@@H](CC(=O)O)NC(=O)[C@@H](Cc2c[nH]c3ccccc23)NC1=O` [Example 36, Cyclo[-D-Asp-Trp-Pro-D-Leu-Leu-D-Trp-]] (cyclo(L[dW][dD]WP[dL])) yielded an IC50 of 1100 nM. This IC50 lies about 1.9-fold lower than the previous one.

By IC50 is commonly meant the point on the concentration scale where inhibition reaches its midpoint. Read a low IC50 as inhibition by little substance.

Source of the values: EP0552417B1, “Cyclic peptides and use thereof” (priority 1991, dated 1993).
